Marks after values point to notes of the source that are not given here.
Experiments:
Assay in all cases: Annexin V-FITC/PI staining, flow cytometry
Type in all cases: cell-based, human
Settings in all cases: 48 h at EC50
HT-29 = tested on: HT-29
From the text: (§1) To discern whether cell death triggered by OOPs treatment occurred via apoptosis or necrosis under the experimental conditions applied in this study, live cells treated with OOPs were stained simultaneously with FITC-conjugated annexin V and propidium iodide (PI). Annexin V binds to phosphatidylserine (PS) translocating from the inner to the outer leaflet of the plasma membrane in apoptotic cells. Therefore, annexin V-FITC binding to PS labels live apoptotic cells with green FL. […] PS exposure to the extracellular space and cell membrane permeability were analyzed by flow cytometry as described in detail in the Experimental Section. […] OOP concentrations used were equal to the EC50 values for each cell line (Table 1). annexin V and PI staining discriminated between early- (i.e., annexin V +ve and PI −ve) and late-apoptotic cells (i.e., annexin V +ve and PI +ve), as well as between necrotic (i.e., annexin V −ve and PI +ve) and live (i.e., annexin V −ve and PI −ve) cells (Table 4).
(§2) Apoptosis and necrosis were assessed by double staining with annexin V-FITC and propidium iodide (PI) and were analyzed using flow cytometry (FACS). Human cancer cells were plated in 96-well culture plates in 100 μL of complete medium and were allowed to adhere overnight (~16 h). […] In detail, 0.5 μL of a 500× stock of each tested compound in DMSO was added directly into each well in a final volume of 250 μL culture medium and was gently mixed by pipetting. Control wells were prepared under the same experimental conditions by adding only DMSO at a final concentration of 0.2% (v/v). At the end of the treatment, the cells were detached by trypsinization, media with serum was added to deactivate trypsin, and the cells from three wells were pooled together by centrifugation (1000 rpm, 5 min, 24 °C), washed with cold PBS, centrifuged (1000 rpm, 5 min, 24 °C) and finally resuspended in cold 1× annexin V binding buffer (10 mM HEPES pH = 7.4, 150 mM NaCl, 2.5 mM CaCl2) at a density of 10^4 cells/mL. Staining was performed by incubating with annexin V- FITC and propidium iodide (PI; BioLegend) for 15 min at room temperature in the dark, according to the manufacturer’s instructions. Negative control samples consisted of cells treated only with 0.2% (v/v) DMSO for the same incubation time length (i.e., 48 h). Cells treated with Triton X-100 (0.25% (v/v)) for 5 min at 4 °C were used as controls for 100% permeabilization of the plasma membrane and maximum fluorescence staining with PI (positive control for cells in necrosis). The presence of live, apoptotic or necrotic cells was assessed with the FACS Calibur (Becton–Dickinson, San Jose, CA, USA). In total, 10,000 cells were analyzed per measurement and the acquired data were analyzed using the FlowJo V.10.0.8 software (Tree Star Inc., Ashland, OR, USA). Each condition was analyzed in duplicate, and the results presented are from 2 or 3 independent experiments.
(§3) Data showing OOPs’ apoptotic/necrotic effect were derived from two or three independent experiments and were presented as the means ± SE of the percentage (%) of both annexin V-positive cells (early apoptotic events) and % of annexin V/PI positive cells (late apoptotic events) over the whole cell population normalized to the corresponding events of the control cells, as determined using the FlowJo software.

A2058 = tested on: A2058
From the text: as §1, §2, §3

MCF-7 = tested on: MCF-7
From the text: as §1, §2, §3

| Compound | % Cell Viability (HT-29) | Early Apoptotic (% ± S.D.) (HT-29) | Late Apoptotic (% ± S.D.) (HT-29) | Total Apoptotic (%) (HT-29) | % Cell Viability (A2058) | Early Apoptotic (% ± S.D.) (A2058) | Late Apoptotic (% ± S.D.) (A2058) | Total Apoptotic (%) (A2058) | % Cell Viability (MCF-7) | Early Apoptotic (% ± S.D.) (MCF-7) | Late Apoptotic (% ± S.D.) (MCF-7) | Total Apoptotic (%) (MCF-7) |
| --- | --- | --- | --- | --- | --- | --- | --- | --- | --- | --- | --- | --- |
| COC(=O)C1=COC(C)[C@@H](C=O)[C@@H]1CC(=O)OCCc1ccc(O)c(O)c1 (mixture of isomers) [3a,b, oleuropein aglycone] | 41 ^a % | 6.95 ± 1.5% | 1.55 ± 1.5% | 8.50 ± 1.8 ^a % | 24% | 11.88 ± 2.3% | 7.26 ± 1.6% | 19.14 ± 0.7% | 69% | 7.03 ± 0.3% | 1.29 ± 0.8% | 8.31 ± 1.2% |
| C/C=C(/C=O)[C@@H](CC=O)CC(=O)OCCc1ccc(O)cc1 [compound 1, oleocanthal] | 66% | 5.53 ± 1.1% | 6.10 ± 4.3% | – | 36% | 5.05 ± 2.7% | 2.35 ± 1.7% | 7.40 ± 4.4% | 65% | 6.30 ± 2.3% | 3.77 ± 0.8% | 10.07 ± 3.1% |

— paper PMC9820430, “New Affordable Methods for Large-Scale Isolation of Major Olive Secoiridoids and Systematic Comparative Study of Their Antiproliferative/Cytotoxic Effect on Multiple Cancer Cell Lines of Different Cancer Origins” (International Journal of Molecular Sciences, 2022)
